Experimental findings from PubChem BioAssay AID1259407 (Chemical Carcinogenesis Research Information System (CCRIS), 2018) are described below.

Active and inactive are the calls of the source. How the calls were made is not given here.

The test system of the data set is CCRIS mutagenicity, Ames/micronucleus/aberration tests. The data set can be described thus: CCRIS mutagenicity studies.
Setting [1] is: Test System: AMES SALMONELLA TYPHIMURIUM, Strain/Indicator: TA98, Metabolic Activation: HAMSTER, LIVER, S-9, AROCLOR 1254, Method: STANDARD PLATE.
The mark [2] stands for this setting: Test System: AMES SALMONELLA TYPHIMURIUM, Strain/Indicator: TA98, Metabolic Activation: RAT, LIVER, S-9, AROCLOR 1254, Method: STANDARD PLATE.
The mark [3] stands for this setting: Test System: AMES SALMONELLA TYPHIMURIUM, Strain/Indicator: TA100, Metabolic Activation: HAMSTER, LIVER, S-9, AROCLOR 1254, Method: STANDARD PLATE.
Where [4] appears, read: Test System: AMES SALMONELLA TYPHIMURIUM, Strain/Indicator: TA100, Metabolic Activation: NONE, Method: STANDARD PLATE.
The mark [5] stands for this setting: Test System: AMES SALMONELLA TYPHIMURIUM, Strain/Indicator: TA100, Metabolic Activation: RAT, LIVER, S-9, AROCLOR 1254, Method: STANDARD PLATE.
Setting [6] is: Test System: AMES SALMONELLA TYPHIMURIUM, Strain/Indicator: TA1535, Metabolic Activation: HAMSTER, LIVER, S-9, AROCLOR 1254, Method: STANDARD PLATE.
[7] abbreviates: Test System: AMES SALMONELLA TYPHIMURIUM, Strain/Indicator: TA1535, Metabolic Activation: NONE, Method: STANDARD PLATE.
Where [8] appears, read: Test System: AMES SALMONELLA TYPHIMURIUM, Strain/Indicator: TA1535, Metabolic Activation: RAT, LIVER, S-9, AROCLOR 1254, Method: STANDARD PLATE.
Where [9] appears, read: Test System: AMES SALMONELLA TYPHIMURIUM, Strain/Indicator: TA1537, Metabolic Activation: HAMSTER, LIVER, S-9, AROCLOR 1254, Method: STANDARD PLATE.
The mark [10] stands for this setting: Test System: AMES SALMONELLA TYPHIMURIUM, Strain/Indicator: TA1537, Metabolic Activation: NONE, Method: STANDARD PLATE.
Where [11] appears, read: Test System: AMES SALMONELLA TYPHIMURIUM, Strain/Indicator: TA1537, Metabolic Activation: RAT, LIVER, S-9, AROCLOR 1254, Method: STANDARD PLATE.
[12] abbreviates: Test System: AMES SALMONELLA TYPHIMURIUM, Strain/Indicator: TA98, Metabolic Activation: NONE, Method: STANDARD PLATE.

On to `COc1cc(CNC(=O)CCCCCCC(C)C)ccc1O`, for which the mutagenic call is “inactive; negative” under setting [1]; “inactive; negative” under setting [2]; “inactive; negative” under setting [3]; “inactive; negative” under setting [4]; “inactive; negative” under setting [5]; “inactive; negative” under setting [6]. The mutagenic call by setting is: under setting [7], “inactive; negative”; under setting [8], “inactive; negative”; under setting [9], “inactive; negative”; under setting [10], “inactive; negative”; under setting [11], “inactive; negative”; (Test System: AMES SALMONELLA TYPHIMURIUM, Strain/Indicator: TA1538, Metabolic Activation: HAMSTER, LIVER, S-9, AROCLOR 1254, Method: STANDARD PLATE) “inactive; negative”. The mutagenic call was “inactive; negative” (Test System: AMES SALMONELLA TYPHIMURIUM, Strain/Indicator: TA1538, Metabolic Activation: NONE, Method: STANDARD PLATE) and “inactive; negative” (Test System: AMES SALMONELLA TYPHIMURIUM, Strain/Indicator: TA1538, Metabolic Activation: RAT, LIVER, S-9, AROCLOR 1254, Method: STANDARD PLATE).
For the compound `C[C@H](N)C(=O)c1ccccc1`, the mutagenic call (End Point: In vivo chromosomal aberrations, Test System: Blood from cardiac puncture, Species: Rat, Strain/Sex: Sprague-Dawley/Male, Route: Oral) was “active; positive (high dose significantly different from control and low dose)”.
On to `O=[N+]([O-])c1ccc2c3c(c4cccc5ccc1c2c54)CCCC3`, for which the mutagenic call was “active; positive” under setting [12] and “active; positive” under setting [2].
For `CCOC(=O)Nc1cccc2c1CN(C)CC2c1ccc(Cl)cc1` (stereo unspecified), the mutagenic call (Test System: AMES SALMONELLA TYPHIMURIUM, Strain/Indicator: TA98, Metabolic Activation: NONE) is “inactive; negative”; the mutagenic call (Test System: AMES SALMONELLA TYPHIMURIUM, Strain/Indicator: TA98, Metabolic Activation: S-9) was “inactive; negative”; the mutagenic call (Test System: AMES SALMONELLA TYPHIMURIUM, Strain/Indicator: TA100, Metabolic Activation: NONE) was “inactive; negative”; the mutagenic call (Test System: AMES SALMONELLA TYPHIMURIUM, Strain/Indicator: TA100, Metabolic Activation: S-9) was “inactive; negative”; the mutagenic call (Test System: AMES SALMONELLA TYPHIMURIUM, Strain/Indicator: TA1535, Metabolic Activation: NONE) is “inactive; negative”; the mutagenic call (Test System: AMES SALMONELLA TYPHIMURIUM, Strain/Indicator: TA1535, Metabolic Activation: S-9) is “inactive; negative”. In addition, the mutagenic call by setting is: (Test System: AMES SALMONELLA TYPHIMURIUM, Strain/Indicator: TA1537, Metabolic Activation: NONE) “inactive; negative”; (Test System: AMES SALMONELLA TYPHIMURIUM, Strain/Indicator: TA1537, Metabolic Activation: S-9) “inactive; negative”; (Test System: AMES SALMONELLA TYPHIMURIUM, Strain/Indicator: TA1538, Metabolic Activation: NONE) “inactive; negative”; (Test System: AMES SALMONELLA TYPHIMURIUM, Strain/Indicator: TA1538, Metabolic Activation: S-9) “inactive; negative”.
Regarding `CN(C)c1ccc2cc3ccc(N(C)C)cc3nc2c1`, the mutagenic call by setting is: under setting [2], “active; positive”; under setting [5], “active; positive”; under setting [11], “active; positive”; (Test System: CHINESE HAMSTER OVARY, Strain/Indicator: CHO-K1-BH4 (HGPRT)/6-THIOGUANINE, Metabolic Activation: S-9, Method: SUSPENSION/PLATE) “active; positive”; (Test System: E. COLI, Strain/Indicator: WP2, Metabolic Activation: NONE, Method: PREINCUBATION) “inactive; negative”; (Test System: MOUSE LYMPHOMA, Strain/Indicator: L5178Y (TK+/TK-), Metabolic Activation: S-9, Method: SUSPENSION/PLATE) “active; positive”.
With `CN1C[C@H](C(=O)N[C@]2(C)O[C@@]3(O)[C@@H]4CCCN4C(=O)[C@H](Cc4ccccc4)N3C2=O)C=C2c3cccc4[nH]cc(c34)C[C@H]21`, the mutagenic call is “inactive; negative” (Test System: AMES SALMONELLA TYPHIMURIUM, Strain/Indicator: TA98, Metabolic Activation: HAMSTER, LIVER, S-9, AROCLOR 1254 (10%), Method: PREINCUBATION); “inactive; negative” under setting [1]; “inactive; negative” (Test System: AMES SALMONELLA TYPHIMURIUM, Strain/Indicator: TA98, Metabolic Activation: NONE, Method: PREINCUBATION); “inactive; negative” under setting [12]; “inactive; negative” (Test System: AMES SALMONELLA TYPHIMURIUM, Strain/Indicator: TA98, Metabolic Activation: RAT, LIVER, S-9, AROCLOR 1254 (10%), Method: PREINCUBATION); “inactive; negative” under setting [2]. In addition, the mutagenic call is “inactive; negative” (Test System: AMES SALMONELLA TYPHIMURIUM, Strain/Indicator: TA100, Metabolic Activation: HAMSTER, LIVER, S-9, AROCLOR 1254 (10%), Method: PREINCUBATION); “inactive; negative” under setting [3]; “inactive; negative” (Test System: AMES SALMONELLA TYPHIMURIUM, Strain/Indicator: TA100, Metabolic Activation: NONE, Method: PREINCUBATION); “inactive; negative” under setting [4]; “inactive; negative” (Test System: AMES SALMONELLA TYPHIMURIUM, Strain/Indicator: TA100, Metabolic Activation: RAT, LIVER, S-9, AROCLOR 1254 (10%), Method: PREINCUBATION); “inactive; negative” under setting [5]. Moreover, the mutagenic call is “inactive; negative” (Test System: AMES SALMONELLA TYPHIMURIUM, Strain/Indicator: TA1535, Metabolic Activation: HAMSTER, LIVER, S-9, AROCLOR 1254 (10%), Method: PREINCUBATION); “inactive; negative” under setting [6]; “inactive; negative” (Test System: AMES SALMONELLA TYPHIMURIUM, Strain/Indicator: TA1535, Metabolic Activation: NONE, Method: PREINCUBATION); “inactive; negative” under setting [7]; “inactive; negative” (Test System: AMES SALMONELLA TYPHIMURIUM, Strain/Indicator: TA1535, Metabolic Activation: RAT, LIVER, S-9, AROCLOR 1254 (10%), Method: PREINCUBATION); “inactive; negative” under setting [8]. Besides, the mutagenic call (Test System: AMES SALMONELLA TYPHIMURIUM, Strain/Indicator: TA1537, Metabolic Activation: HAMSTER, LIVER, S-9, AROCLOR 1254 (10%), Method: PREINCUBATION) was “inactive; negative”; the mutagenic call under setting [9] was “inactive; negative”; the mutagenic call (Test System: AMES SALMONELLA TYPHIMURIUM, Strain/Indicator: TA1537, Metabolic Activation: NONE, Method: PREINCUBATION) was “inactive; negative”; the mutagenic call under setting [10] was “inactive; negative”; the mutagenic call (Test System: AMES SALMONELLA TYPHIMURIUM, Strain/Indicator: TA1537, Metabolic Activation: RAT, LIVER, S-9, AROCLOR 1254 (10%), Method: PREINCUBATION) is “inactive; negative”; the mutagenic call under setting [11] is “inactive; negative”. Also, the mutagenic call reads like this: (Test System: MOUSE LYMPHOMA, Strain/Indicator: L5178Y (TK+/TK-), Metabolic Activation: NONE, Method: SUSPENSION/PLATE) “inactive; negative”; (Test System: MOUSE LYMPHOMA, Strain/Indicator: L5178Y (TK+/TK-), Metabolic Activation: RAT, LIVER, S-9, AROCLOR 1254, Method: SUSPENSION/PLATE) “inactive; negative”; (Test System: Mouse lymphoma, Strain/Indicator: L5178Y (tk+/tk-), Metabolic Activation: None, Method: Suspension/plate) “inactive; negative”; (Test System: Mouse lymphoma, Strain/Indicator: L5178Y (tk+/tk-), Metabolic Activation: Rat, Liver, S-9, Aroclor 1254, Method: Suspension/plate) “inactive; negative”.
